Source: patent publication US11246816B2, “Shampoo compositions comprising a chelant” (The Procter & Gamble Company, priority 2016, dated 2022)

Key:
[1] = Log P, n-octanol/water partition coefficient; type: physicochemical
Excerpt: The term log P is the n-octanol/water partition coefficients of the material.
The copper to be removed is inside the hair and the chelant needs to penetrate inside hair and form a strong copper-chelant complex. This copper-chelant complex needs to be water soluble and thus easily removed during the rinsing process. […] These are log P, the octanol/water partitioning coefficient, and the molecular weight of the chelant. Both are related to the ability of the chelant to penetrate into hair and also form a water soluble copper-chelant complex

[2] = log of formation constant of complex with copper; cited from earlier work
[3] = Copper content of colored hair switches after repeated shampoo wash cycles (ICP-OES); conditions: clarifying shampoo containing the chelant, 20 cycles, copper content of hair compared to same treatment with shampoo without chelant
Description: The copper removing performance of the shampoo composition is determined by treating hair with clarifying shampoo containing the corresponding chelant for 20 cycles and comparing the copper content of the hair compared to the same treatment using shampoo without the chelant.
All testing are performed on colored hair switches (see Method of Measurement of Copper on Hair below) weighing approximately 4.0 grams and having a length of approximately 6 inches. The hair switches are commercially available from IHIP (International Hair Importers). Three hair switches per shampoo composition are used. An amount of […] of shampoo is spread via a syringe onto separate hair switch. That is, the dosage is 0.10 g of shampoo per g of hair. Each application consists of adding shampoo to the hair, milking for 30 seconds followed by rinsing for 30 seconds. Shampoo is then reapplied (0.1 g/g), milked for 30 seconds and rinsed for 30 seconds. Excess water is squeezed from the hair switches and left to air dry or treated with a rinse-off conditioner and/or a leave-on treatment composition. This protocol is repeated for a number of times/cycles (as indicated in the tables below, which describe the details of hair treatments).
The following test method is used to assess the ability of the compositions and regimens to remove copper from the hair and to inhibit copper deposition onto the hair.
Hair switches are colored once with an oxidative hair colorant. An extra blonde shade is used for the testing. The hair switches are washed for 10 or 20 repeat wash cycles in tap water containing 7 grains per gallon water hardness (Ca/Mg) and 0.06 μg/g copper ions. Each wash cycle consists of two applications of 0.1 g/g a shampoo to the hair switches. Each application consists of adding shampoo to the hair, milking for 30 secs followed by rinsing for 30 secs. Shampoo is then reapplied 0.1 g/g, milked for 30 secs, rinsed for 30 secs and then dried in a heat box (60° C.) until dry.
Samples of 100 mg of hair are digested overnight with 2 ml of high purity concentrated nitric acid. The digestive mixture also contains 150 μL of 100 μg/g Yttrium internal standard (Inorganic Ventures, Christianburg, Va., USA). Following digestion, samples are heated to 70-80° C. for one hour, cooled to room temperature and diluted to 15 mL with deionized water. Copper content of the hair switches is determined by inductively coupled plasma atomic spectroscopy (ICP-OES)). For each leg, 3 different samples are analyzed.
In order to minimize the variability of the resulting copper content on hair that is related to (a) lot-to-lot viariability due to hair switches and (b) day-to-day variability of the water used during shampoo and conditioner treatments, a single lot of hair switches is used for each experimental series and a separate control experiment/treatment is run for each experimental series (see below).

SMILES	logP [1]	Log KML Cu [2]	Copper Removing Performance from Shampoo [3] [%]
Nc1cc(C(=O)O)nc(C(=O)O)c1 [4-Aminopyridine-2,6-dicarboxylic acid, 4-aminopyridine-2,6-dicarboxylic acid]	0	11.4	
Cc1cccc(C(=O)O)n1 [6-Methyl Picolinic Acid, 6-methylpyridine-2-carboxylic acid]	1	7.1	35
O=C(O)c1cc(O)cc(C(=O)O)n1 [Chelidamic Acid, chelidamic acid]	0.6	12.2	35
O=C(O)c1cccc(C(=O)O)n1 [Dipicolinic Acid, dipicolinic acid]	0.8	9.1	40
CCCCc1ccc(C(=O)O)nc1 [Fusaric Acid, fusaric acid]	2.6		
O=C(O)c1ccccn1 [Picolinic Acid, picolinic acid]	0.7	7.9	50
O=C(O)c1ccc2ccccc2n1 [Quinaldic Acid, quinaldic acid]	2.1	5.9	35
O=C(O)c1cccnc1C(=O)O [Quinolinic Acid, quinolinic acid]	0.4		50
